According to paper PMC4737155 (Nucleic Acids Research, 2015):

Legend:
Assay in all cases: biochemical
[1] = target: SaTrm10 (Sulfolobus acidocaldarius, UniProt Q4J894, D220N)
[2] = target: T1, SaTrm10 (Sulfolobus acidocaldarius, UniProt Q4J894)
T1 sequence (Q4J894 1-292): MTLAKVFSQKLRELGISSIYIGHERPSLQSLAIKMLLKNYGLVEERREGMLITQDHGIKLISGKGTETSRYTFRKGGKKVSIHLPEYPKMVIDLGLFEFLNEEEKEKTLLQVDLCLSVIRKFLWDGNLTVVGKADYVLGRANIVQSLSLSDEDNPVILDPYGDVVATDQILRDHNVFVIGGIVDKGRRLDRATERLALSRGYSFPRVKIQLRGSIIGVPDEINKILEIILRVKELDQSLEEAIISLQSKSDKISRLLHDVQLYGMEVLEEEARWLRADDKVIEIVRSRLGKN

[3] = target: SaTrm10 (Sulfolobus acidocaldarius, UniProt Q4J894, D184N)
SaTrm10 (Sulfolobus acidocaldarius, UniProt Q4J894, D184N), sequence (Q4J894 whole entry D184N): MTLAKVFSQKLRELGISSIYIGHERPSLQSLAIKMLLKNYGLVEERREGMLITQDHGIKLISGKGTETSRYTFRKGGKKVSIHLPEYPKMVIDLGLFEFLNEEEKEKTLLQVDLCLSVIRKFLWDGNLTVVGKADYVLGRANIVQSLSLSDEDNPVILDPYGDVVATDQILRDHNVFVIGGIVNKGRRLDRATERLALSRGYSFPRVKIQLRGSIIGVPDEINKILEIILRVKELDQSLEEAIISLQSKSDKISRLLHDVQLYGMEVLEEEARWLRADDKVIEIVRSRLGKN

SaTrm10 (Sulfolobus acidocaldarius, UniProt Q4J894, D220N), sequence (Q4J894 whole entry D220N): as the sequence (Q4J894 whole entry D184N) above, with N184D, D220N counted along it

Kd [1]: 47 ± 8 µM | Kd [2]: 33 ± 4 µM | Kd [3]: 28 ± 5 µM
Structure (SMILES): C[S+](CC[C@H](N)C(=O)O)C[C@H]1O[C@@H](n2cnc3c(N)ncnc32)[C@H](O)[C@@H]1O (stereo partly drawn) [S-adenosyl methionine]
